# Test results reported in patent publication US20260262643A1, “HERBICIDAL BENZOXAZINES” (FMC CORPORATION, priority 2022, published 2026).
# Tests used:
# barnyardgrass [1] = test: Test C preemergence; type: in vivo, Echinochloa crusgalli; conditions: preemergence, 0 to 100 scale (0 no effect, 100 complete control)
# Method in brief: (§1)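 Pre: seeds in loam/sand, directed soil spray. Post: 1–2 leaf plants, 2–10 cm. Cmpd in non-phytotoxic solvent + surfactant. Greenhouse 10 d; visual rating vs untreated, 0 = none, 100 = complete control.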
# blackgrass [2] = test: Test C preemergence; type: in vivo, Alopecurus myosuroides; conditions: preemergence, 0 to 100 scale (0 no effect, 100 complete control)
# Method in brief: as §1
# corn [3] = test: Test C preemergence; type: in vivo, Zea mays; conditions: preemergence, 0 to 100 scale (0 no effect, 100 complete control)
# Method in brief: as §1
# green foxtail [4] = test: Test C preemergence; type: in vivo, Setaria viridis; conditions: preemergence, 0 to 100 scale (0 no effect, 100 complete control)
# Method in brief: as §1
# kochia [5] = test: Test C preemergence; type: in vivo, Bassia scoparia; conditions: preemergence, 0 to 100 scale (0 no effect, 100 complete control)
# Method in brief: as §1
# oat, wild [6] = test: Test C preemergence; type: in vivo, Avena fatua; conditions: preemergence, 0 to 100 scale (0 no effect, 100 complete control)
# Method in brief: as §1
# pigweed, palmer [7] = test: Test C preemergence; type: in vivo, Amaranthus palmeri; conditions: preemergence, 0 to 100 scale (0 no effect, 100 complete control)
# Method in brief: as §1
# ragweed [8] = test: Test C preemergence; type: in vivo, Ambrosia artemisiifolia; conditions: preemergence, 0 to 100 scale (0 no effect, 100 complete control)
# Method in brief: as §1
# ryegrass, Italian [9] = test: Test C preemergence; type: in vivo, Lolium multiflorum; conditions: preemergence, 0 to 100 scale (0 no effect, 100 complete control)
# Method in brief: as §1
# soybean [10] = test: Test C preemergence; type: in vivo, Glycine max; conditions: preemergence, 0 to 100 scale (0 no effect, 100 complete control)
# Method in brief: as §1
# wheat [11] = test: Test C preemergence; type: in vivo, Triticum aestivum; conditions: preemergence, 0 to 100 scale (0 no effect, 100 complete control)
# Method in brief: as §1
# barnyardgrass [12] = test: Test C postemergence; type: in vivo, Echinochloa crusgalli; conditions: postemergence, 10 days
# Method in brief: as §1
# blackgrass [13] = test: Test C postemergence; type: in vivo, Alopecurus myosuroides; conditions: postemergence, 10 days
# Method in brief: as §1
# corn [14] = test: Test C postemergence; type: in vivo, Zea mays; conditions: postemergence, 10 days
# Method in brief: as §1
# green foxtail [15] = test: Test C postemergence; type: in vivo, Setaria viridis; conditions: postemergence, 10 days
# Method in brief: as §1
# kochia [16] = test: Test C postemergence; type: in vivo, Bassia scoparia; conditions: postemergence, 10 days
# Method in brief: as §1
# oat, wild [17] = test: Test C postemergence; type: in vivo, Avena fatua; conditions: postemergence, 10 days
# Method in brief: as §1
# pigweed, palmer [18] = test: Test C postemergence; type: in vivo, Amaranthus palmeri; conditions: postemergence, 10 days
# Method in brief: as §1
# ragweed [19] = test: Test C postemergence; type: in vivo, Ambrosia artemisiifolia; conditions: postemergence, 10 days
# Method in brief: as §1
# ryegrass, Italian [20] = test: Test C postemergence; type: in vivo, Lolium multiflorum; conditions: postemergence, 10 days
# Method in brief: as §1
# soybean [21] = test: Test C postemergence; type: in vivo, Glycine max; conditions: postemergence, 10 days
# Method in brief: as §1
# wheat [22] = test: Test C postemergence; type: in vivo, Triticum aestivum; conditions: postemergence, 10 days
# Method in brief: as §1
# galium = test: Test C postemergence; type: in vivo, Galium aparine; conditions: postemergence, 10 days
# Method in brief: as §1
# horseweed = test: Test C postemergence; type: in vivo, Erigeron canadensis; conditions: postemergence, 10 days
# Method in brief: as §1
# barnyardgrass [23] = test: Test D flooded paddy test; type: in vivo, Echinochloa crus-galli; conditions: 250 g ai/ha, applied to paddy water, visual rating after 13 to 14 days, scale 0 to 100 (0 no effect, 100 complete control)
# Method in brief: (§2)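 Visual ratings from 0, meaning no effect, to 100, meaning complete control, were assigned against untreated controls 13 to 14 days after compounds were added to the floodwater of pots kept 3 cm deep, with plants at the 2-leaf stage.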
# ducksalad = test: Test D flooded paddy test; type: in vivo, Heteranthera limosa; conditions: 250 g ai/ha, applied to paddy water, visual rating after 13 to 14 days, scale 0 to 100 (0 no effect, 100 complete control)
# Method in brief: as §2
# rice = test: Test D flooded paddy test; type: in vivo, Oryza sativa; conditions: 250 g ai/ha, applied to paddy water, visual rating after 13 to 14 days, scale 0 to 100 (0 no effect, 100 complete control)
# Method in brief: as §2
# sedge, umbrella = test: Test D flooded paddy test; type: in vivo, Cyperus difformis; conditions: 250 g ai/ha, applied to paddy water, visual rating after 13 to 14 days, scale 0 to 100 (0 no effect, 100 complete control)
# Method in brief: as §2
# [24] = 125 g ai/ha, 0 to 100 scale, 0 no effect, 100 complete control
# [25] = 500 g ai/ha, 0 to 100 scale (0 no effect, 100 complete control)
structure (smiles),measurement,setting,value
"CC(C)c1ncn(-c2cccc(C(=O)N3CC(C(F)(F)F)Oc4c(Cl)cccc43)c2)n1 (single isomer, unassigned) [Compound 289]",Barnyardgrass plant response rating,barnyardgrass [1]; 500 g ai/ha,100
same,Barnyardgrass plant response rating,"barnyardgrass [1]; Test C, 125 g ai/ha",60
same,Blackgrass plant response rating,blackgrass [2]; 500 g ai/ha,90
same,Blackgrass plant response rating,"blackgrass [2]; Test C, 125 g ai/ha",80
same,Corn plant response rating,corn [3]; 500 g ai/ha,20
same,Corn plant response rating,"corn [3]; Test C, 125 g ai/ha",10
same,"Foxtail, Green plant response rating",green foxtail [4]; 500 g ai/ha,100
same,"Foxtail, Green plant response rating","green foxtail [4]; Test C, 125 g ai/ha",100
same,Kochia plant response rating,kochia [5]; 500 g ai/ha,100
same,Kochia plant response rating,"kochia [5]; Test C, 125 g ai/ha",70
same,"Oat, Wild plant response rating","oat, wild [6]; 500 g ai/ha",90
same,"Oat, Wild plant response rating","oat, wild [6]; Test C, 125 g ai/ha",80
same,"Pigweed, Palmer plant response rating","pigweed, palmer [7]; 500 g ai/ha",100
same,"Pigweed, Palmer plant response rating","pigweed, palmer [7]; Test C, 125 g ai/ha",100
same,Ragweed plant response rating,ragweed [8]; 500 g ai/ha,70
same,Ragweed plant response rating,"ragweed [8]; Test C, 125 g ai/ha",50
same,"Ryegrass, Italian plant response rating","ryegrass, Italian [9]; 500 g ai/ha",100
same,"Ryegrass, Italian plant response rating","ryegrass, Italian [9]; Test C, 125 g ai/ha",100
same,Soybean plant response rating,soybean [10]; 500 g ai/ha,90
same,Soybean plant response rating,"soybean [10]; Test C, 125 g ai/ha",90
same,Wheat plant response rating,wheat [11]; 500 g ai/ha,50
same,Wheat plant response rating,"wheat [11]; Test C, 125 g ai/ha",30
same,"Plant response rating, Barnyardgrass",barnyardgrass [12]; [24],30
same,"Plant response rating, Barnyardgrass",barnyardgrass [12]; [25],60
same,"Plant response rating, Blackgrass",blackgrass [13]; [24],30
same,"Plant response rating, Blackgrass",blackgrass [13]; [25],100
same,"Plant response rating, Corn",corn [14]; [24],20
same,"Plant response rating, Corn",corn [14]; [25],30
same,"Plant response rating, Foxtail, Green",green foxtail [15]; [24],20
same,"Plant response rating, Foxtail, Green",green foxtail [15]; [25],90
same,"Plant response rating, Kochia",kochia [16]; [24],80
same,"Plant response rating, Kochia",kochia [16]; [25],90
same,"Plant response rating, Oat, Wild","oat, wild [17]; [24]",30
same,"Plant response rating, Oat, Wild","oat, wild [17]; [25]",60
same,"Plant response rating, Pigweed, Palmer","pigweed, palmer [18]; [24]",90
same,"Plant response rating, Pigweed, Palmer","pigweed, palmer [18]; [25]",100
same,"Plant response rating, Ragweed",ragweed [19]; [24],60
same,"Plant response rating, Ragweed",ragweed [19]; [25],70
same,"Plant response rating, Ryegrass, Italian","ryegrass, Italian [20]; [24]",40
same,"Plant response rating, Ryegrass, Italian","ryegrass, Italian [20]; [25]",90
same,"Plant response rating, Soybean",soybean [21]; [24],100
same,"Plant response rating, Soybean",soybean [21]; [25],90
same,"Plant response rating, Wheat",wheat [22]; [24],20
same,"Plant response rating, Wheat",wheat [22]; [25],40
same,"Plant response rating, Galium",galium; [24],100
same,"Plant response rating, Galium",galium; [25],100
same,"Plant response rating, Horseweed",horseweed; [24],0
same,"Plant response rating, Horseweed",horseweed; [25],40
same,"Plant response rating, Barnyardgrass (Flood)",barnyardgrass [23],50
same,"Plant response rating, Ducksalad (Flood)",ducksalad,65
same,"Plant response rating, Rice (Flood)",rice,10
same,"Plant response rating, Sedge, Umbrella (Flood)","sedge, umbrella",100
